Test [1] relates to AD45-AldH. Kind of test: NADH formation at […] nm, substrate inhibition model at high concentrations. To be noted: NAD+ 5 mM, 50 mM sodium carbonate pH 10.0, racemic substrate. The class given is biochemical, Rhodococcus sp. AD45.
Test [2] has as its system T1, WS11-AldH.
T1 construct: isoprene cluster copy, on megaplasmid
Described as above. The class given is biochemical, Variovorax sp. WS11. Particulars: NAD+ 5 mM, 50 mM sodium carbonate pH 10.0, racemic substrate.

The test system of test [3] is AD45-AldH. Kind of test: NADH formation at […] nm, Michaelis-Menten fit. Particulars: NAD+ 5 mM, 50 mM sodium carbonate pH 10.0. In kind it is biochemical, Rhodococcus sp. AD45.
The subject of test [4] is T1, WS11-AldH. Kind of test: NADH formation at […] nm, Michaelis-Menten fit. The class given is biochemical, Variovorax sp. WS11. To be noted: NAD+ 5 mM, 50 mM sodium carbonate pH 10.0.

The term Km denotes the substrate concentration at which the rate is half of its maximum. `CCC(C)C=O` (racemic) [2-methylbutanal]: the Km with AD45-AldH [1] was 30 µM; with WS11-AldH [2], 120 µM.

`CCCC=O` [butanal]: the Km with AD45-AldH [3] is 80 µM; in the test on WS11-AldH [4] it was 690 µM.

On to `CCC=O` [propanal], for which the Km with AD45-AldH [3] is 570 µM; in the test on WS11-AldH [4] (predicted Km, not saturated at 10 mM), around 10900 µM.

Source of the values: publication PMC10057887, “Analysis of Essential Isoprene Metabolic Pathway Proteins in Variovorax sp. Strain WS11” (Applied and Environmental Microbiology, 2023).
